In ChEMBL document CHEMBL4823298, “In vitro anti-Leishmania activity and molecular docking of spiro-acridine compounds as potential multitarget agents against Leishmania infantum” (Bioorg Med Chem Lett, 2021):
≈ marks a conversion by molar mass, not a printed value.

How the values were obtained:
Leishmania infantum [1] = experiment: Antileishmanial activity against promastigote form of Leishmania infantum assessed as inhibition of parasite growth; type: functional, organism-based
[2] = Cytotoxicity against human erythrocytes; type: cell-based, Erythrocyte
Leishmania infantum [3] = experiment: Antileishmanial activity against axenic amastigote stage of Leishmania infantum assessed as reduction in parasite growth at 0.7812 ug/ml; type: functional
Leishmania infantum [4] = experiment: Antileishmanial activity against axenic amastigote stage of Leishmania infantum assessed as reduction in parasite growth; type: functional, organism-based
[5] = Selectivity index, ratio of CC50 for PBMC (unknown origin) to EC50 for anti-leishmanial activity against axenic amastigote stage of Leishmania infantum; type: toxicity; conditions: read-out: Ratio CC50/EC50
[6] = Cytotoxicity against PBMC (unknown origin)
Leishmania infantum [7] = experiment: Antileishmanial activity against axenic amastigote stage of Leishmania infantum assessed as reduction in parasite growth at 6.25 to 12.5 ug/ml; type: functional; conditions: dose 6.25-12.5 µg/ml; at 6.25 to 12.5 µg/mL
[8] = Inhibition of Leishmania donovani Topoisomerase 1
[9] = Inhibition of Leishmania Trypanothione reductase

SMILES	IC50 (Leishmania infantum [1])	HC50 [2]	further results
N#CC1=CC2(c3ccccc3Nc3ccccc32)N(/N=C\c2ccc(F)cc2)C1=O	4.11 µg/mL (≈ 10.4 µM)	> 400 µg/mL	–
N#CC1=CC2(c3ccccc3Nc3ccccc32)N(/N=C\c2ccccc2)C1=O	2.04 µg/mL (≈ 5.42 µM)	> 400 µg/mL	inhibition at 0.7812 µg/mL (Leishmania infantum [3]): 21.7%; EC50 (Leishmania infantum [4]): 4.96 µg/mL (≈ 13.2 µM); selectivity ratio [5]: 8.9; CC50 [6]: 44.2 µg/mL (≈ 117 µM); inhibition (INH) (Leishmania infantum [7]): 65%
N#CC1=CC2(c3ccccc3Nc3ccccc32)N(/N=C\c2ccc([N+](=O)[O-])cc2)C1=O	5.33 µg/mL (≈ 12.7 µM)	> 400 µg/mL	–
N#CC1=CC2(c3ccccc3Nc3ccccc32)N(/N=C\c2c(Cl)cccc2Cl)C1=O	2.63 µg/mL (≈ 5.91 µM)	> 400 µg/mL	–
N#CC1=CC2(c3ccccc3Nc3ccccc32)N(/N=C\c2ccccc2[N+](=O)[O-])C1=O	3.78 µg/mL (≈ 8.97 µM)	> 400 µg/mL	–
N#CC1=CC2(c3ccccc3Nc3ccccc32)N(/N=C\c2ccc(Cl)cc2Cl)C1=O	3.89 µg/mL (≈ 8.74 µM)	> 400 µg/mL	–
CN(C)c1ccc(/C=N\N2C(=O)C(C#N)=CC23c2ccccc2Nc2ccccc23)cc1	1.11 µg/mL (≈ 2.64 µM)	> 400 µg/mL	inhibition at 0.7812 µg/mL (Leishmania infantum [3]): 33.2%; EC50 (Leishmania infantum [4]): 0.974 µg/mL (≈ 2.32 µM); selectivity ratio [5]: > 103; CC50 [6]: > 100 µg/mL; inhibition (INH) (Leishmania infantum [7]): 65%
N#CC1=CC2(c3ccccc3Nc3ccccc32)N(/N=C\c2ccc(Cl)cc2)C1=O	5.68 µg/mL (≈ 13.8 µM)	> 400 µg/mL	–
CCOc1cc(/C=N\N2C(=O)C(C#N)=CC23c2ccccc2Nc2ccccc23)ccc1O	6.06 µg/mL (≈ 13.9 µM)	> 400 µg/mL	–
C[C@@H]1[C@H](O)[C@@H](C)/C=C/C=C/C=C/C=C/C=C/C=C/C=C/[C@H](O[C@@H]2O[C@H](C)[C@@H](O)[C@H](N)[C@@H]2O)C[C@@H]2O[C@](O)(C[C@@H](O)C[C@@H](O)[C@H](O)CC[C@@H](O)C[C@@H](O)CC(=O)O[C@H]1C)C[C@H](O)[C@H]2C(=O)O [AMPHOTERICIN B]	0.9 µg/mL (≈ 0.974 µM)	–	EC50 (Leishmania infantum [4]): 1.6 µg/mL (≈ 1.73 µM); selectivity ratio [5]: 4.78; CC50 [6]: 7.63 µg/mL (≈ 8.26 µM)
CC[C@@]1(O)C(=O)OCc2c1cc1n(c2=O)Cc2cc3ccccc3nc2-1 [CAMPTOTHECIN]	–	–	EC50 [8]: 0.7 µM
CN(C)CCCN1c2ccccc2CCc2ccc(Cl)cc21 [CLOMIPRAMINE]	–	–	IC50 [9]: 3.8 µM
OCCN1CCN(CCCN2c3ccccc3Sc3ccc(Cl)cc32)CC1 [PERPHENAZINE]	–	–	IC50 [9]: 4.88 µM
CCN(CC)CCCC(C)Nc1c2ccc(Cl)cc2nc2ccc(OC)cc12 (stereo unspecified) [QUINACRINE]	–	–	IC50 [9]: 19 µM
